14 compounds from patent EP1090023B1 (GLAXO GROUP LIMITED, priority 1998, dated 1999) can be followed below.

SMILES strings stand for the structures. A value given as a limit tells only on which side of the number the result lay.

What all share (format): cell-based
The target of one test is T1, adenosine 1 (Homo sapiens, UniProt P30542).
T1 sequence (P30542 1-326): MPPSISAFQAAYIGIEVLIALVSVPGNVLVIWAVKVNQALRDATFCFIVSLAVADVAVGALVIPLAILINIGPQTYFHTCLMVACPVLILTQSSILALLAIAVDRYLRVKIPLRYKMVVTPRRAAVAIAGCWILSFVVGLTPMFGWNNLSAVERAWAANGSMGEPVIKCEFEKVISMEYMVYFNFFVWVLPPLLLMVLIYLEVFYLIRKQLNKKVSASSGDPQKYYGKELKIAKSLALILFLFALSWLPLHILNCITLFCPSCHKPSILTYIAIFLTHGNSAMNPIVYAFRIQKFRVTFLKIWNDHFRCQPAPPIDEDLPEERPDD
Kind of test: Agonist activity against adenosine receptor subtypes, CHO cells with cAMP response element/SPAP reporter (forskolin-enhanced cAMP). The conditions noted are these: ratio to EC50 of NECA; transfected CHO cells; effect on forskolin-enhanced cAMP via SPAP. Here is the method:
(§1) Compounds of the invention were tested for in vitro and in vivo biological activity in accordance with the following screens: • (1) Agonist activity against adenosine 2a, adenosine 1 and adenosine 3 receptor subtypes.
(§2) Agonist selectivity of compounds against other human adenosine receptors was determined using Chinese hamster ovary (CHO) cells transfected with the gene for the relevant human adenosine receptor following a method based on that of Castanon and Spevak, 1994 . The CHO cells were also transfected with cyclic AMP response elements promoting the gene for secreted placental alkaline phosphatase (SPAP) (Wood, 1995). The effect of test compounds was determined by their effects on basal levels of cAMP (A2a) or on forskolin-enhanced cAMP (A1 and A3) as reflected by changes in levels of SPAP. EC50 values for compounds were then determined as a ratio to that of the non-selective agonist N-ethyl carboxamide adenosine (NECA).

The target of the next test is T2, adenosine 3 (Homo sapiens, UniProt P0DMS8).
T2 sequence (P0DMS8 1-318): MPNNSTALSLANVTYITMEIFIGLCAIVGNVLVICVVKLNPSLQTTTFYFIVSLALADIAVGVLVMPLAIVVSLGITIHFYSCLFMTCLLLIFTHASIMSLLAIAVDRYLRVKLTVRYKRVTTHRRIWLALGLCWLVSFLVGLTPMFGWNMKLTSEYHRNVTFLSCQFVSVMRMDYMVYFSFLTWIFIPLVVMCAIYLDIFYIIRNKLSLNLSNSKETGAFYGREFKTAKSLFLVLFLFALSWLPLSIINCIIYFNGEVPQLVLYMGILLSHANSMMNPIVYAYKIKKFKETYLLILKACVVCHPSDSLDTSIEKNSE
The test is described as above. Conditions: ratio to EC50 of NECA; transfected CHO cells; effect on forskolin-enhanced cAMP via SPAP. The method, then: as §1, §2

A further test concerns the target adenosine 2a (Homo sapiens, UniProt P29274). Kind of test: Agonist activity against adenosine receptor subtypes, CHO cells with cAMP response element/SPAP reporter (basal cAMP). The conditions noted are these: ratio to EC50 of NECA; transfected CHO cells; effect on basal cAMP via SPAP. Here is the method: as §1, §2

Sequence of adenosine 2a (P29274 whole entry): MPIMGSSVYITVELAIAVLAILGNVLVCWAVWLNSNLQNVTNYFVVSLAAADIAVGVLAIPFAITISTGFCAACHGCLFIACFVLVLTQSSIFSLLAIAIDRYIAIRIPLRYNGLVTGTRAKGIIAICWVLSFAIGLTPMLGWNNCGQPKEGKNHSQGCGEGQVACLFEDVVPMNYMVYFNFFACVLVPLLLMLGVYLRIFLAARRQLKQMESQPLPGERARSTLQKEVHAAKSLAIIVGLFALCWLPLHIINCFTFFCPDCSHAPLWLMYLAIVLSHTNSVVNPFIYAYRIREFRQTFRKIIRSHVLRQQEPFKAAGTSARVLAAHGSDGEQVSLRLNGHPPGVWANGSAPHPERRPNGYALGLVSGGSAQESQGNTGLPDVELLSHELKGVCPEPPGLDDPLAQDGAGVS

With `CCc1nc([C@H]2O[C@@H](n3cnc4c(NCC(c5ccccc5)c5ccccc5)nc(NCCN5CCCCC5)nc43)[C@H](O)[C@@H]2O)no1.O=CO` [Example 14, (2R,3R,4S,5R)-2-[6-(2,2-Diphenyl-ethylamino)-2-(2-piperidin-1-yl-ethylamino)-purin-9-yl]-5-(5-ethyl-[1,2,4]oxadiazol-3-yl)-tetrahydro-furan-3,4-diol formate], the “A1 (EC50 values as a ratio of that of NECA)” value on adenosine 1 is reported as “>=4762”. Besides, the “A3 (EC50 values as a ratio of that of NECA)” value at adenosine 3 is on record as over 190. Moreover, at adenosine 2a, the “A2a (EC50 values as a ratio of that of NECA)” value came to 12.86.

With `CCc1nc([C@H]2O[C@@H](n3cnc4c(NCC(c5ccccc5)c5ccccc5)nc(NCCN5CCOCC5)nc43)[C@H](O)[C@@H]2O)no1.O=CO` [Example 15, (2R,3R,4S,5R)-2-[6-(2,2-Diphenyl-ethylamino)-2-(2-morpholin-4-yl-ethylamino)-purin-9-yl]-5-(5-ethyl-[1,2,4]oxadiazol-3-yl)-tetrahydro-furan-3,4-diol formate], the “A1 (EC50 values as a ratio of that of NECA)” value on adenosine 1 was “>=8649”. Besides, on adenosine 3, the “A3 (EC50 values as a ratio of that of NECA)” value is recorded as over 190. The “A2a (EC50 values as a ratio of that of NECA)” value on adenosine 2a turned out to be 13.62.

Turning to `CCc1nc([C@H]2O[C@@H](n3cnc4c(NCC(c5ccccc5)c5ccccc5)nc(N[C@H](CO)Cc5ccccc5)nc43)[C@H](O)[C@@H]2O)no1.O=CO` [Example 16, (2R,3R,4S,5R)-2-[6-(2,2-Diphenyl-ethylamino)-2-(1S-hydroxymethyl-2-phenyl-ethylamino)-purin-9-yl]-5-(5-ethyl-[1,2,4]oxadiazol-3-yl)-tetrahydro-furan-3,4-diol formate], the “A1 (EC50 values as a ratio of that of NECA)” value at adenosine 1 came out at 4514.96. At adenosine 3, the “A3 (EC50 values as a ratio of that of NECA)” value was over 257. The “A2a (EC50 values as a ratio of that of NECA)” value at adenosine 2a is listed as 5.75.

`Cc1cnc([C@H]2O[C@@H](n3cnc4c(NCCC5CCCCC5)nc(N[C@H](CO)Cc5ccccc5)nc43)[C@H](O)[C@@H]2O)o1.O=CO` [Example 17, (2R,3R,4S,5S)-2-[6-(2-Cyclohexyl-ethylamino)-2-(1S-hydroxymethyl-2-phenyl-ethylamino)-purin-9-yl]-5-(5-methyl-oxazol-2-yl)-tetrahydro-furan-3,4-diol formate]: the “A1 (EC50 values as a ratio of that of NECA)” value on adenosine 1 was found to be 538. Further, the “A3 (EC50 values as a ratio of that of NECA)” value on adenosine 3 is given as over 518. Also, the “A2a (EC50 values as a ratio of that of NECA)” value on adenosine 2a is on record as 5.45.

In the case of `Cc1cnc([C@H]2O[C@@H](n3cnc4c(NCC(c5ccccc5)c5ccccc5)nc(N[C@@H]5CCNC5)nc43)[C@H](O)[C@@H]2O)o1.O=CO.O=CO` [Example 18, (2R,3R,4S,5S)-2-[6-(2,2-Diphenyl-ethlyamino)-2-(pyrrolidin-3R-ylamino)-purin-9-yl]-5-(5-methyl-oxazol-2-yl)-tetrahydro-furan-3,4-diol diformate], the “A1 (EC50 values as a ratio of that of NECA)” value at adenosine 1 was 5515. Besides, the “A3 (EC50 values as a ratio of that of NECA)” value on adenosine 3 is recorded as over 223. Also, the “A2a (EC50 values as a ratio of that of NECA)” value on adenosine 2a is 18.9.

Regarding `Cc1nnc([C@H]2O[C@@H](n3cnc4c(NCC(c5ccccc5)c5ccccc5)nc(NCCc5cn(C)cn5)nc43)[C@H](O)[C@@H]2O)s1.O=CO.O=CO` [Example 19, (2R,3R,4S,5S)-2-{6-(2,2-Diphenyl-ethylamino)-2-[2-(1-methyl-1H-imidazol-4-yl)-ethylamino]-purin-9-yl}-5-(5-methyl-[1,3,4]thiadiazol-2-yl)-tetrahydro-furan-3,4-diol diformate], the “A1 (EC50 values as a ratio of that of NECA)” value at adenosine 1 came out at 3172. For the same compound, the “A3 (EC50 values as a ratio of that of NECA)” value at adenosine 3 was over 293. Further, the “A2a (EC50 values as a ratio of that of NECA)” value on adenosine 2a is reported as 4.05.

As for `Cc1nnc([C@H]2O[C@@H](n3cnc4c(NCC(c5ccccc5)c5ccccc5)nc(N[C@H](CO)Cc5ccccc5)nc43)[C@H](O)[C@@H]2O)s1.O=CO` [Example 20, (2R,3R,4S,5S)-2-[6-(2,2-Diphenyl-ethylamino)-2-(1S-hydroxymethyl-2-phenyl-ethylamino)-purin-9-yl]-5-(5-methyl-[1,3,4]thiadiazol-2-yl)-tetrahydro-furan-3,4-diol formate], the “A1 (EC50 values as a ratio of that of NECA)” value on adenosine 1 is on record as 2625. Besides, the “A3 (EC50 values as a ratio of that of NECA)” value on adenosine 3 is recorded as over 470. Besides, the “A2a (EC50 values as a ratio of that of NECA)” value on adenosine 2a is 17.7.

With `CCc1nnc([C@H]2O[C@@H](n3cnc4c(NCC(c5ccccc5)c5ccccc5)nc(N[C@H](CO)Cc5ccccc5)nc43)[C@H](O)[C@@H]2O)o1.O=CO` [Example 21, (2R,3R,4S,5S)-2-[6-(2,2-Diphenyl-ethylamino)-2-(1S-hydroxymethyl-2-phenyl-ethylamino)-purin-9-yl]-5-(5-ethyl-[1,3,4]oxadiazol-2-yl)-tetrahydro-furan-3,4-diol formate], on adenosine 1, the “A1 (EC50 values as a ratio of that of NECA)” value is given as 568.06. At adenosine 3, the “A3 (EC50 values as a ratio of that of NECA)” value is recorded as over 173. In addition, the “A2a (EC50 values as a ratio of that of NECA)” value at adenosine 2a is on record as 3.04.

On to `CCc1nnc([C@H]2O[C@@H](n3cnc4c(NCC(c5ccccc5)c5ccccc5)nc(NCCN5CCCCC5)nc43)[C@H](O)[C@@H]2O)o1.O=CO` [Example 22, (2R,3R,4S,5S)-2-[6-(2,2-Diphenyl-ethylamino)-2-(2-piperidin-1-yl-ethylamino)-purin-9-yl]-5-(5-ethyl-[1,3,4]oxadiazol-2-yl)-tetrahydro-furan-3,4-diol formate], for which the “A1 (EC50 values as a ratio of that of NECA)” value at adenosine 1 came out at 101.96. For the same compound, the “A3 (EC50 values as a ratio of that of NECA)” value on adenosine 3 is recorded as over 180. Further, the “A2a (EC50 values as a ratio of that of NECA)” value at adenosine 2a amounted to 12.28.

Regarding `CCc1nnc([C@H]2O[C@@H](n3cnc4c(NCC(c5ccccc5)c5ccccc5)nc(NCCN5CCOCC5)nc43)[C@H](O)[C@@H]2O)o1.O=CO` [Example 23, (2R,3R,4S,5S)-2-[6-(2,2-Diphenyl-ethylamino)-2-(2-morpholin-4-yl-ethylamino)-purin-9-yl]-5-(5-ethyl-[1,3,4]oxadiazol-2-yl)-tetrahydro-furan-3,4-diol formate], on adenosine 1, the “A1 (EC50 values as a ratio of that of NECA)” value was 101.96. The “A3 (EC50 values as a ratio of that of NECA)” value at adenosine 3 was over 180. For the same compound, the “A2a (EC50 values as a ratio of that of NECA)” value on adenosine 2a is reported as 6.16.

Turning to `CCc1nnc([C@H]2O[C@@H](n3cnc4c(NCC(c5ccccc5)c5ccccc5)nc(NCCc5ccccn5)nc43)[C@H](O)[C@@H]2O)o1.O=CO` [Example 24, (2R,3R,4S,5S)-2-[6-(2,2-Diphenyl-ethylamino)-2-(2-pyridin-2-yl-ethylamino)-purin-9-yl]-5-(5-ethyl-[1,3,4]oxadiazol-2-yl)-tetrahydro-furan-3,4-diol formate], the “A1 (EC50 values as a ratio of that of NECA)” value at adenosine 1 came out at 390.97. The “A3 (EC50 values as a ratio of that of NECA)” value on adenosine 3 is over 175. For the same compound, the “A2a (EC50 values as a ratio of that of NECA)” value on adenosine 2a is 6.04.

`CCc1nnc([C@H]2O[C@@H](n3cnc4c(NCC(c5ccccc5)c5ccccc5)nc(N[C@H]5CC[C@H](N)CC5)nc43)[C@H](O)[C@@H]2O)o1.O=CO` [Example 25, (2R,3R,4S,5S)-2-[2-(trans-4-Amino-cyclohexylamino)-6-(2,2-diphenyl-ethylamino)-purin-9-yl]-5-(5-ethyl-[1,3,4]oxadiazol-2-yl)-tetrahydro-furan-3,4-diol formate]: at adenosine 1, the “A1 (EC50 values as a ratio of that of NECA)” value worked out at 398.28. Further, the “A3 (EC50 values as a ratio of that of NECA)” value on adenosine 3 is over 136. Also, the “A2a (EC50 values as a ratio of that of NECA)” value on adenosine 2a was 4.81.

As for `CCc1nnc([C@H]2O[C@@H](n3cnc4c(NCC(c5ccccc5)c5ccccc5)nc(N[C@@H]5CCNC5)nc43)[C@H](O)[C@@H]2O)o1.O=CO` [Example 26, (2R,3R,4S,5S)-2-[6-(2,2-Diphenyl-ethylamino)-2-(pyrrolidin-3R-ylamino)-purin-9-yl]-5-(5-ethyl-[1,3,4]oxadiazol-2-yl)-tetrahydro-furan-3,4-diol formate], the “A1 (EC50 values as a ratio of that of NECA)” value at adenosine 1 was found to be 432. Also, at adenosine 3, the “A3 (EC50 values as a ratio of that of NECA)” value is given as over 162. For the same compound, the “A2a (EC50 values as a ratio of that of NECA)” value at adenosine 2a is reported as 5.57.

`CCc1nnc([C@H]2O[C@@H](n3cnc4c(NCC(c5ccccc5)c5ccccc5)nc(NCCc5ccccn5)nc43)[C@H](O)[C@@H]2O)[nH]1.O=CO` [Example 27, (2R,3R,4S,5R)-2-[6-(2,2-Diphenyl-ethylamino)-2-(2-pyridin-2-yl-ethylamino)-purin-9-yl]-5-(5-ethyl-4H-[1,2,4]triazol-3-yl)-tetrahydro-furan-3,4-diol formate]: the “A1 (EC50 values as a ratio of that of NECA)” value at adenosine 1 came to 135.9. Also, the “A3 (EC50 values as a ratio of that of NECA)” value on adenosine 3 is reported as over 183. Further, the “A2a (EC50 values as a ratio of that of NECA)” value at adenosine 2a is recorded as 21.8.
